The values below come from patent US9340590B2 (priority 2011, dated 2016).

Like-named read-outs stand apart in the source and are kept apart here. Positions of bridges follow the written chain, without caps; N, C: chain ends. Non-standard residues stand in square brackets, D forms with d. Residues, ends and D or L forms follow the SMILES beside them. Phe(4-COOH) = N[C@@H](Cc1ccc(C(=O)O)cc1)C(=O)O; 2Pal = N[C@@H](Cc1ccccn1)C(=O)O; Cha = N[C@@H](CC1CCCCC1)C(=O)O

What all share (assay): cell-based
Assay [1] has as its target hNav1.3 (Homo sapiens, UniProt Q9NY46). Particulars: IonWorks Quattro, use, […], read-out: IWQ Use Nav1.3. Background: In patch-clamp work, channel activity is measured electrically.
The target of assay [2] is hNav1.5 (Homo sapiens, UniProt Q14524). The conditions noted are these: IonWorks Quattro, use, […], read-out: IWQ Use Nav1.5.
Assay [3] deals with hNav1.7 (Homo sapiens, UniProt Q15858). The class given is cell-based. Particulars: IonWorks Quattro, use, […], read-out: IWQ Use Nav1.7.
hNav1.7, sequence (Q15858 whole entry, looked up): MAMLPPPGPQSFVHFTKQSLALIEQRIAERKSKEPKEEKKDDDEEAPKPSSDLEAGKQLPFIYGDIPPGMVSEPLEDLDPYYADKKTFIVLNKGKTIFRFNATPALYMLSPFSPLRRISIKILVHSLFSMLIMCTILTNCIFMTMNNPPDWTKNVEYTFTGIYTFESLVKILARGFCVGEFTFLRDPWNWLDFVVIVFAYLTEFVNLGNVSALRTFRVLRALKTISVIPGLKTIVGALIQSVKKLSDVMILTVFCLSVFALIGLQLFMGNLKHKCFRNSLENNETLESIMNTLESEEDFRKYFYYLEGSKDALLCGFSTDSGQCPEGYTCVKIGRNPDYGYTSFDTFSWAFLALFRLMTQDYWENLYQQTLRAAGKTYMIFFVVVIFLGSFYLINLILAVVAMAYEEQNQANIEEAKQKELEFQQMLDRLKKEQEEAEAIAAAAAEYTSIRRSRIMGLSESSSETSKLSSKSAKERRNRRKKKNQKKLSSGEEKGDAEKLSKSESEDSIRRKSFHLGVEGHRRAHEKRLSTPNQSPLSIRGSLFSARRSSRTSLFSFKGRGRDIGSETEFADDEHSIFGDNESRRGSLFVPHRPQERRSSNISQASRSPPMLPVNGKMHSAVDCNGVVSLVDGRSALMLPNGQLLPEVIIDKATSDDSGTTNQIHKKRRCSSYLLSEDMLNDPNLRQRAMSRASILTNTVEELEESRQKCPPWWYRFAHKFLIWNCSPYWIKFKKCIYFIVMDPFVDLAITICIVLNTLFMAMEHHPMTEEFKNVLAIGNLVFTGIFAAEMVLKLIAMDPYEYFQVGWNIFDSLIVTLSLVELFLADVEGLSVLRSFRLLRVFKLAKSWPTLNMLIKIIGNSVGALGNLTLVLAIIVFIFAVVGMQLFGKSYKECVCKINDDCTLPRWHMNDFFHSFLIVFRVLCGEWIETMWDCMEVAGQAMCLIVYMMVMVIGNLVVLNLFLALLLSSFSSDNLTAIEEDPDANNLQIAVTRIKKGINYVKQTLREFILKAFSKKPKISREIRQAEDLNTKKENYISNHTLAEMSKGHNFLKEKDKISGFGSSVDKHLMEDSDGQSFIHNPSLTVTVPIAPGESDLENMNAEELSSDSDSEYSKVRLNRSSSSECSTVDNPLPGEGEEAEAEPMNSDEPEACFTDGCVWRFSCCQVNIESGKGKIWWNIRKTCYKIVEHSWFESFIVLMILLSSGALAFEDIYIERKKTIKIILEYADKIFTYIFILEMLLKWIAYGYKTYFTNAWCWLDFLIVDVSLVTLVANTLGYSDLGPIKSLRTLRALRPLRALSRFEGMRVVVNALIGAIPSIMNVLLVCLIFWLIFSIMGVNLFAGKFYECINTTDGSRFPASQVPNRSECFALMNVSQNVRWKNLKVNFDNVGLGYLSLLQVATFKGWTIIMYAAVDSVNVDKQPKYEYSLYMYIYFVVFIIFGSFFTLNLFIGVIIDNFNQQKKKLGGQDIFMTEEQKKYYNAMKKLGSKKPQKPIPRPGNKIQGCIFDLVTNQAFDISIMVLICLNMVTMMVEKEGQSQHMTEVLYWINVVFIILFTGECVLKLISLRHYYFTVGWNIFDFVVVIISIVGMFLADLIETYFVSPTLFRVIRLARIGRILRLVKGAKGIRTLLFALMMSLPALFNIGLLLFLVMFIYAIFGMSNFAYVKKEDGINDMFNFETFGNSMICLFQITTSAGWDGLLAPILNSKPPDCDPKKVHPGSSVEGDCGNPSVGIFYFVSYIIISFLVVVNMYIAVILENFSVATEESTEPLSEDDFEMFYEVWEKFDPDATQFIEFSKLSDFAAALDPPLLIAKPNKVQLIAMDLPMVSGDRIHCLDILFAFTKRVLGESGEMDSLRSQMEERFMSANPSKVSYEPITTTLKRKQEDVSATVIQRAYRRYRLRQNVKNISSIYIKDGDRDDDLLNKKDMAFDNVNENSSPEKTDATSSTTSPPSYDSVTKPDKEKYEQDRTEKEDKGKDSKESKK

hNav1.3, sequence (Q9NY46 whole entry, looked up): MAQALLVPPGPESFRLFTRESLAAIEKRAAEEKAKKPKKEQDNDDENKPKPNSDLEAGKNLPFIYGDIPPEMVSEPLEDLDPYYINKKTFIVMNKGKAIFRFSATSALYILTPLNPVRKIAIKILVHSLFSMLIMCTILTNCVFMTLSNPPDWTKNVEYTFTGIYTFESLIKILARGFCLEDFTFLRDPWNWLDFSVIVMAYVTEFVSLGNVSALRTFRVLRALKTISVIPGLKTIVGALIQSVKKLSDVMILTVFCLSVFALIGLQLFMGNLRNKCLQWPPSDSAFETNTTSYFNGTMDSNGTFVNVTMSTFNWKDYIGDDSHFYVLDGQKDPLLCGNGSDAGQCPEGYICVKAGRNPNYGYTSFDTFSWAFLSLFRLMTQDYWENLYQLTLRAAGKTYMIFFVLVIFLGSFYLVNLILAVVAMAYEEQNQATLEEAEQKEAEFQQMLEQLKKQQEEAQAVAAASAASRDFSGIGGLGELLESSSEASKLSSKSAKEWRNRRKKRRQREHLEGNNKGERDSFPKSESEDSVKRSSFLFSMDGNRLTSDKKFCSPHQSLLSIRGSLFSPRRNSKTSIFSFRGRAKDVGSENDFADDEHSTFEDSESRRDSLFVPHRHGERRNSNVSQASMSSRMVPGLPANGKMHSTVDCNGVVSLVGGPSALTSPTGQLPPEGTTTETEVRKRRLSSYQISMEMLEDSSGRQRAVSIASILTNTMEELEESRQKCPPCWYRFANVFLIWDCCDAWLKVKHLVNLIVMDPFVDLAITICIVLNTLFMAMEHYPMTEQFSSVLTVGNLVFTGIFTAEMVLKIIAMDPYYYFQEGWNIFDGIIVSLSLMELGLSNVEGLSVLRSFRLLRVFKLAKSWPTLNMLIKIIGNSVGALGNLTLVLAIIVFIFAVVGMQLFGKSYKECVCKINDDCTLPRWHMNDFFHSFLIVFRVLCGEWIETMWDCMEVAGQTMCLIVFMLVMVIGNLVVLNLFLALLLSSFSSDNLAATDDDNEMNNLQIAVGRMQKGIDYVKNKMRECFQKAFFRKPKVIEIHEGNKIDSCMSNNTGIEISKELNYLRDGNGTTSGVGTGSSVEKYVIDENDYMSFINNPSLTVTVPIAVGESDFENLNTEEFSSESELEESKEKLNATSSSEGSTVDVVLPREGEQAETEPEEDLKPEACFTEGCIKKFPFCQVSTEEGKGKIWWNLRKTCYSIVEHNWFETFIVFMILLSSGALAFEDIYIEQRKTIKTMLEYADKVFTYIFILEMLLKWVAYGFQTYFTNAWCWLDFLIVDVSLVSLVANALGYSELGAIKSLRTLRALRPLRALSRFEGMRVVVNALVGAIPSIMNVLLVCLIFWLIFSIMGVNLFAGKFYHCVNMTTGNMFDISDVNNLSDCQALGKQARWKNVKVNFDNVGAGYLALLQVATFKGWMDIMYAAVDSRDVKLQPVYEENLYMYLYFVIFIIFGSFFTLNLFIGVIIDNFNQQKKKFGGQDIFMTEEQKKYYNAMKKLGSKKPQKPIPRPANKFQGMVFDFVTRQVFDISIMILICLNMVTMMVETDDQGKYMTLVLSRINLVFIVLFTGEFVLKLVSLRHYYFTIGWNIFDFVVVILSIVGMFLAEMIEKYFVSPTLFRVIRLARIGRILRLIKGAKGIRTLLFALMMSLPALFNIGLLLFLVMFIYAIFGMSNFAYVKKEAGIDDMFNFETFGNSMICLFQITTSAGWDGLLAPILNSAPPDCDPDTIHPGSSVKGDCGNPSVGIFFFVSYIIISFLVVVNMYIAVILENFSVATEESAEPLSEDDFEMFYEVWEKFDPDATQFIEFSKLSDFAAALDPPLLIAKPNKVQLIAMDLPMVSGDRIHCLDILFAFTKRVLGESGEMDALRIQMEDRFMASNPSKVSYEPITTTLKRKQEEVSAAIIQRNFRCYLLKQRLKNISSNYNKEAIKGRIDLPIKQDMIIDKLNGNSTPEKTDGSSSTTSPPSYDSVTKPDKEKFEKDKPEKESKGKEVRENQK

In the case of `CC[C@H](C)[C@@H]1NC(=O)[C@@H]2CSSC[C@@H]3NC(=O)[C@H](C(C)C)NC(=O)[C@H](CC(C)C)NC(=O)[C@H](CC(N)=O)NC(=O)[C@@H]4CCCN4C(=O)[C@H](CCCNC(=N)N)NC(=O)[C@H](CSSC[C@H](NC(=O)[C@@H](N)CC(=O)O)C(=O)N[C@@H](CC(C)C)C(=O)NCC(=O)N[C@@H](Cc4ccccc4)C(=O)N[C@@H](CCSC)C(=O)N[C@@H](CCCNC(=N)N)C(=O)N[C@@H](CCCCN)C(=O)N2)NC(=O)[C@H](CSSC[C@@H](C(=O)N[C@@H](CCCCN)C(=O)N[C@@H](Cc2ccccn2)C(=O)N[C@H](C(=O)N[C@@H](Cc2ccccc2)C(N)=O)C(C)C)NC(=O)[C@H](Cc2c[nH]c4ccccc24)NC(=O)[C@H](CCCCN)NC(=O)[C@H](Cc2c[nH]cn2)NC(=O)[C@H]([C@@H](C)O)NC(=O)[C@H](CCCNC(=N)N)NC(=O)[C@H](CO)NC3=O)NC(=O)[C@H](CCCCN)NC(=O)[C@H](CC(=O)O)NC(=O)[C@H](CC(N)=O)NC(=O)[C@H](CC(=O)O)NC(=O)[C@@H]2CCCN2C1=O` [compound 384] (H-DCLGFMRKCIPDNDKCCRPNLVCSRTHKWCK[2Pal]VF-NH2; disulfide 2-17, 9-23, 16-30), the figures for the IC50 in assay [1] (Table 25), in assay [2] (Table 25) and in assay [3] (Table 25) were 0.66 µM, 7.65 µM and 0.81 µM, respectively.
On the same counts, the results for `CC[C@H](C)[C@@H]1NC(=O)[C@@H]2CSSC[C@@H]3NC(=O)[C@H](C(C)C)NC(=O)[C@H](CC(C)C)NC(=O)[C@H](CC(N)=O)NC(=O)[C@@H]4CCCN4C(=O)[C@H](CCCNC(=N)N)NC(=O)[C@H](CSSC[C@H](NC(=O)[C@@H](N)CC(=O)O)C(=O)N[C@@H](CC(C)C)C(=O)NCC(=O)N[C@@H](Cc4ccccc4)C(=O)N[C@@H](CCSC)C(=O)N[C@@H](CCCNC(=N)N)C(=O)N[C@@H](CCCCN)C(=O)N2)NC(=O)[C@H](CSSC[C@@H](C(=O)N[C@@H](CCCCN)C(=O)N[C@@H](Cc2ccc(C(=O)O)cc2)C(=O)N[C@H](C(=O)N[C@@H](Cc2ccccc2)C(N)=O)C(C)C)NC(=O)[C@H](Cc2c[nH]c4ccccc24)NC(=O)[C@H](CCCCN)NC(=O)[C@H](Cc2c[nH]cn2)NC(=O)[C@H]([C@@H](C)O)NC(=O)[C@H](CCCNC(=N)N)NC(=O)[C@H](CO)NC3=O)NC(=O)[C@H](CCCCN)NC(=O)[C@H](CC(=O)O)NC(=O)[C@H](CC(N)=O)NC(=O)[C@H](CC(=O)O)NC(=O)[C@@H]2CCCN2C1=O` [compound 385] (H-DCLGFMRKCIPDNDKCCRPNLVCSRTHKWCK[Phe(4-COOH)]VF-NH2; disulfide 2-17, 9-23, 16-30) are 4.05 µM, 7.7 µM and 11.4 µM.
In the case of `CC[C@H](C)[C@@H]1NC(=O)[C@@H]2CSSC[C@@H]3NC(=O)[C@H](C(C)C)NC(=O)[C@H](CC(C)C)NC(=O)[C@H](CC(N)=O)NC(=O)[C@@H]4CCCN4C(=O)[C@H](CCCNC(=N)N)NC(=O)[C@H](CSSC[C@H](NC(=O)[C@@H](N)CC(=O)O)C(=O)N[C@@H](CC(C)C)C(=O)NCC(=O)N[C@@H](Cc4ccccc4)C(=O)N[C@@H](CCSC)C(=O)N[C@@H](CCCNC(=N)N)C(=O)N[C@@H](CCCCN)C(=O)N2)NC(=O)[C@H](CSSC[C@@H](C(=O)N[C@@H](CCCCN)C(=O)N[C@@H](Cc2ccc(O)cc2)C(=O)N[C@@H](CC2CCCCC2)C(=O)N[C@@H](Cc2ccccc2)C(N)=O)NC(=O)[C@H](Cc2c[nH]c4ccccc24)NC(=O)[C@H](CCCCN)NC(=O)[C@H](Cc2c[nH]cn2)NC(=O)[C@H]([C@@H](C)O)NC(=O)[C@H](CCCNC(=N)N)NC(=O)[C@H](CO)NC3=O)NC(=O)[C@H](CCCCN)NC(=O)[C@H](CC(=O)O)NC(=O)[C@H](CC(N)=O)NC(=O)[C@H](CC(=O)O)NC(=O)[C@@H]2CCCN2C1=O` [compound 386] (H-DCLGFMRKCIPDNDKCCRPNLVCSRTHKWCKY[Cha]F-NH2; disulfide 2-17, 9-23, 16-30), the IC50 came to 0.07 µM in assay [1] (Table 26), 12.2 µM in assay [2] (Table 26) and 0.07 µM in assay [3] (Table 26).
